5 compounds from PMC8654833 (Scientific Reports, 2021) can be followed below.

The target of test [1] is T1, DAT (Homo sapiens, UniProt Q01959).
T1 construct: Euroscreen FAST (contract assay)
The test can be described thus: Radioligand binding competition dose-response (Euroscreen), dopamine transporter. The conditions noted are these: dose-response study, maximal concentration 10 µM, [3H]WIN 35,428; read-out: %Binding inhibition at 10 µM. Here is the method:
(§1) This study included binding assays (87 GPCR targets), measured as % of binding inhibition of a reference radioligand, as well as uptake and enzyme assays (19 targets), the latter measured as % inhibition of control enzyme activity. […] It was performed by radioligand binding competition by Euroscreen (Euroscreen FAST, Belgium). The following nanomolar concentrations were tested in duplicate: 0.001, 0.01, 0.1, 1, 10, 100, 1000, 10,000. Dose–response curves were fitted with the least squares method. IC50 results are shown as pIC50, corresponding to the negative log10 of IC50 in molar.

The target of test [2] is Ca^2+ channel, ds. The test can be described thus: Radioligand binding competition dose-response (Euroscreen), Ca2+ channel diltiazem site. The method, then:
as §1

The target in test [3] is 5-HT2A (Homo sapiens, UniProt P28223). The test can be described thus: biochemical. The conditions noted are these: read-out: %Binding inhibition at 10 µM. The method, then:
as §1

Test [4] deals with Ca^2+ channel, vs. The test can be described thus: Radioligand binding competition dose-response (Euroscreen), Ca2+ channel verapamil site. Here is the method: as §1
Test [5] deals with T2, 5-HT5A (Homo sapiens, UniProt P47898).
T2 construct: Euroscreen FAST (contract assay)
The test can be described thus: Radioligand binding competition dose-response (Euroscreen), 5-HT5A. The note with it: dose-response study, maximal concentration 10 µM, [3H]LSD. Here is the method: as §1

T2 sequence (P47898 whole entry, species assumed): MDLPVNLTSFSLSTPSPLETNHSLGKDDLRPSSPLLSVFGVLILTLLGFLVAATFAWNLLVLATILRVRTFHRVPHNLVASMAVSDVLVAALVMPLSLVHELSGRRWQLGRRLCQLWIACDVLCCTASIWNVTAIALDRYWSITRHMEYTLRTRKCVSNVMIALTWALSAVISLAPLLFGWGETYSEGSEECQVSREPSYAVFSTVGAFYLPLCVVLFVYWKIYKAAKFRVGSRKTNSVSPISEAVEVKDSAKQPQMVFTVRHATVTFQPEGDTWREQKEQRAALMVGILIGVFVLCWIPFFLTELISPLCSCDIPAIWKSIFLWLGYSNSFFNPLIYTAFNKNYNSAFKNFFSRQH
Sequence of 5-HT2A (P28223 whole entry, species assumed): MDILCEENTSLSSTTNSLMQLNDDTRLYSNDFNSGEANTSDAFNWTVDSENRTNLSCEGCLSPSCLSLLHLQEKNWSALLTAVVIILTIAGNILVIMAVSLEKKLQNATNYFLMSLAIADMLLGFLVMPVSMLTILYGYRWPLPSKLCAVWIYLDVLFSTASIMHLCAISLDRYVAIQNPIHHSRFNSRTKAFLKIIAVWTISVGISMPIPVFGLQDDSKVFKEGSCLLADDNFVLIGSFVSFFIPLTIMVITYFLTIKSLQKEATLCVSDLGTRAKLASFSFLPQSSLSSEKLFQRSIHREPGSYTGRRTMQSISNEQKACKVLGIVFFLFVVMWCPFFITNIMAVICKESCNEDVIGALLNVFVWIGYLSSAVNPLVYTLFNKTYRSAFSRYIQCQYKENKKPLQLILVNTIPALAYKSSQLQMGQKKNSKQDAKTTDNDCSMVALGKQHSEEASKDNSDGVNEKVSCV
T1 sequence (Q01959 whole entry, species assumed): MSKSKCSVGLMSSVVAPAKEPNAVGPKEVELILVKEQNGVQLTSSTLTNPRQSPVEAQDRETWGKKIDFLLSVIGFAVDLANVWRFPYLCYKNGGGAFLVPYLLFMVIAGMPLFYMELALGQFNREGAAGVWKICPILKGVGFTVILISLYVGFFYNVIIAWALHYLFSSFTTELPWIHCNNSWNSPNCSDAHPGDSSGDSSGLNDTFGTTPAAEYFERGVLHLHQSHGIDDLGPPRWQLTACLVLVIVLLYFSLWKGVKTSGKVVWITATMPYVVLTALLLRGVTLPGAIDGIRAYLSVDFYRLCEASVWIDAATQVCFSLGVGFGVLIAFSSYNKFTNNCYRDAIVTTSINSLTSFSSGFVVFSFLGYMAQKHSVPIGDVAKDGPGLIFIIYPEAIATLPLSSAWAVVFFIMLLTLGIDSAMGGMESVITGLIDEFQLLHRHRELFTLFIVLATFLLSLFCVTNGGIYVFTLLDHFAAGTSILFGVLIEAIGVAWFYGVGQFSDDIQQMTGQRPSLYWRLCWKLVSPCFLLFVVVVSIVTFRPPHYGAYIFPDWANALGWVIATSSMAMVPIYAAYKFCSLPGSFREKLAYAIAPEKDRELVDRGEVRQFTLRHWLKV

In general, inhibition refers to the drop in the measured response relative to a control, in per cent. For the compound `Fc1ccc(C(OCCN2CCN(CCCc3ccccc3)CC2)c2ccc(F)cc2)cc1` [GBR 12909], the inhibition at 10 µM in test [1] was determined as 104%. By pIC50 is commonly meant −log10 of the IC50, conventionally taken in molar units. Read a high pIC50 as a small IC50. As for `COc1ccc([C@@H]2Sc3ccccc3N(CCN(C)C)C(=O)[C@@H]2OC(C)=O)cc1` [Diltiazem], the negative logarithm of the IC50 (pIC50) in test [2] ([3H]diltiazem competition) was found to be 4.79. Besides, the “%Binding inhibition at 10 µM” value in test [2] (dose-response study, maximal concentration 10 µM, [3H]diltiazem) was 116.63%. With `O=C(c1ccc(F)cc1)C1CCN(CCn2c(=O)[nH]c3ccccc3c2=O)CC1` [Ketanserin], the inhibition at 10 µM in test [3] is 103%. In turn, `COc1ccc(CCN(C)CCCC(C#N)(c2cc(OC)c(OC)c(OC)c2)C(C)C)cc1OC` (stereo not shown) [Methoxyverapamil] gave a negative logarithm of the IC50 (pIC50) in test [4] ([3H]D888 competition) of 6.56. The “%Binding inhibition at 10 µM” value in test [4] (dose-response study, maximal concentration 10 µM, [3H]D888) worked out at 112.06%.

Regarding `CSc1ccc2c(c1)C(N1CCN(C)CC1)Cc1ccccc1S2` (stereo not shown) [Methiothepin], the “%Binding inhibition at 10 µM” value in test [5] came out at 101.21%.
